Test results published in PubChem BioAssay (NCI).
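Growth conditions: 96-well plates. Treatment: test compound, 48 hours, 5 concentrations. Analysis: linear interpolation between bracketing concentrations; unreached endpoints set to highest concentration. The concentration for full growth arrest is given as TGI.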

Key:
Assay in all cases: NCI anticancer screen, dose series, 48 h
786-0 renal = test system: 786-0 renal
A498 renal = test system: A498 renal
A549 NSCLC = test system: A549 NSCLC
ACHN renal = test system: ACHN renal
BT-549 breast = test system: BT-549 breast
CAKI-1 renal = test system: CAKI-1 renal
CCRF-CEM leukemia = test system: CCRF-CEM leukemia
COLO 205 colon = test system: COLO 205 colon
EKVX NSCLC = test system: EKVX NSCLC
HCT-116 colon = test system: HCT-116 colon
HCT-15 colon = test system: HCT-15 colon
HL-60(TB) leukemia = test system: HL-60(TB) leukemia
HOP-62 NSCLC = test system: HOP-62 NSCLC
HOP-92 NSCLC = test system: HOP-92 NSCLC
HS 578T breast = test system: HS 578T breast
HT29 colon = test system: HT29 colon
IGROV1 ovarian = test system: IGROV1 ovarian
K-562 leukemia = test system: K-562 leukemia
KM12 colon = test system: KM12 colon
LOX IMVI melanoma = test system: LOX IMVI melanoma
M14 melanoma = test system: M14 melanoma
MALME-3M melanoma = test system: MALME-3M melanoma
MCF7 breast = test system: MCF7 breast
MDA-MB-231 breast = test system: MDA-MB-231 breast
MDA-MB-435 = test system: MDA-MB-435
MDA-N = test system: MDA-N
MOLT-4 leukemia = test system: MOLT-4 leukemia
NCI-H226 lung = test system: NCI-H226 lung
NCI-H23 lung = test system: NCI-H23 lung
NCI-H460 lung = test system: NCI-H460 lung
NCI-H522 lung = test system: NCI-H522 lung
NCI/ADR-RES ovarian = test system: NCI/ADR-RES ovarian
OVCAR-3 ovarian = test system: OVCAR-3 ovarian
OVCAR-4 ovarian = test system: OVCAR-4 ovarian
OVCAR-5 ovarian = test system: OVCAR-5 ovarian
OVCAR-8 ovarian = test system: OVCAR-8 ovarian
PC-3 prostate = test system: PC-3 prostate
RPMI-8226 leukemia = test system: RPMI-8226 leukemia
RXF 393 renal = test system: RXF 393 renal
SF-268 CNS = test system: SF-268 CNS
SF-295 CNS = test system: SF-295 CNS
SF-539 CNS = test system: SF-539 CNS
SK-MEL-2 melanoma = test system: SK-MEL-2 melanoma
SK-MEL-28 melanoma = test system: SK-MEL-28 melanoma
SK-MEL-5 melanoma = test system: SK-MEL-5 melanoma
SK-OV-3 ovarian = test system: SK-OV-3 ovarian
SNB-19 CNS = test system: SNB-19 CNS
SNB-75 CNS = test system: SNB-75 CNS
SR leukemia = test system: SR leukemia
SW-620 colon = test system: SW-620 colon
T-47D breast = test system: T-47D breast
TK-10 renal = test system: TK-10 renal
U251 CNS = test system: U251 CNS
UACC-257 melanoma = test system: UACC-257 melanoma
UACC-62 melanoma = test system: UACC-62 melanoma
UO-31 renal = test system: UO-31 renal
DU-145 prostate = test system: DU-145 prostate
SN12C renal = test system: SN12C renal
HCC-2998 colon = test system: HCC-2998 colon

SMILES: CC(CCc1ccccc1)NCC(O)n1c(/N=N/N(C)C)nc2c1c(=O)n(C)c(=O)n2C (centres undefined)
- TGI (786-0 renal): > 100 µM
- TGI (A498 renal): > 100 µM
- TGI (A549 NSCLC): > 100 µM
- TGI (ACHN renal): > 100 µM
- TGI (BT-549 breast): > 100 µM
- TGI (CAKI-1 renal): > 100 µM
- TGI (CCRF-CEM leukemia): > 100 µM
- TGI (COLO 205 colon): > 100 µM
- TGI (EKVX NSCLC): > 100 µM
- TGI (HCT-116 colon): > 100 µM
- TGI (HCT-15 colon): > 100 µM
- TGI (HL-60(TB) leukemia): > 100 µM
- TGI (HOP-62 NSCLC): > 100 µM
- TGI (HOP-92 NSCLC): > 100 µM
- TGI (HS 578T breast): > 100 µM
- TGI (HT29 colon): > 100 µM
- TGI (IGROV1 ovarian): > 100 µM
- TGI (K-562 leukemia): > 100 µM
- TGI (KM12 colon): > 100 µM
- TGI (LOX IMVI melanoma): > 100 µM
- TGI (M14 melanoma): > 100 µM
- TGI (MALME-3M melanoma): > 100 µM
- TGI (MCF7 breast): > 100 µM
- TGI (MDA-MB-231 breast): > 100 µM
- TGI (MDA-MB-435): > 100 µM
- TGI (MDA-N): > 100 µM
- TGI (MOLT-4 leukemia): > 100 µM
- TGI (NCI-H226 lung): > 100 µM
- TGI (NCI-H23 lung): > 100 µM
- TGI (NCI-H460 lung): > 100 µM
- TGI (NCI-H522 lung): > 100 µM
- TGI (NCI/ADR-RES ovarian): > 100 µM
- TGI (OVCAR-3 ovarian): > 100 µM
- TGI (OVCAR-4 ovarian): > 100 µM
- TGI (OVCAR-5 ovarian): > 100 µM
- TGI (OVCAR-8 ovarian): > 100 µM
- TGI (PC-3 prostate): > 100 µM
- TGI (RPMI-8226 leukemia): > 100 µM
- TGI (RXF 393 renal): > 100 µM
- TGI (SF-268 CNS): > 100 µM
- TGI (SF-295 CNS): > 100 µM
- TGI (SF-539 CNS): > 100 µM
- TGI (SK-MEL-2 melanoma): > 100 µM
- TGI (SK-MEL-28 melanoma): > 100 µM
- TGI (SK-MEL-5 melanoma): > 100 µM
- TGI (SK-OV-3 ovarian): > 100 µM
- TGI (SNB-19 CNS): > 100 µM
- TGI (SNB-75 CNS): > 100 µM
- TGI (SR leukemia): > 100 µM
- TGI (SW-620 colon): > 100 µM
- TGI (T-47D breast): > 100 µM
- TGI (TK-10 renal): > 100 µM
- TGI (U251 CNS): > 100 µM
- TGI (UACC-257 melanoma): > 100 µM
- TGI (UACC-62 melanoma): > 100 µM
- TGI (UO-31 renal): > 100 µM

SMILES: Cc1ccc(N=Nc2c(O)c(C(=O)O)cc3ccccc23)c(S(=O)(=O)O)c1
- TGI (786-0 renal): > 100 µM
- TGI (A498 renal): > 100 µM
- TGI (A549 NSCLC): > 100 µM
- TGI (ACHN renal): > 100 µM
- TGI (BT-549 breast): > 100 µM
- TGI (CAKI-1 renal): > 100 µM
- TGI (CCRF-CEM leukemia): > 100 µM
- TGI (COLO 205 colon): > 100 µM
- TGI (DU-145 prostate): > 100 µM
- TGI (EKVX NSCLC): > 100 µM
- TGI (HCT-116 colon): > 100 µM
- TGI (HCT-15 colon): > 100 µM
- TGI (HOP-62 NSCLC): > 100 µM
- TGI (HOP-92 NSCLC): > 100 µM
- TGI (HS 578T breast): > 100 µM
- TGI (HT29 colon): > 100 µM
- TGI (IGROV1 ovarian): > 100 µM
- TGI (K-562 leukemia): > 100 µM
- TGI (KM12 colon): > 100 µM
- TGI (LOX IMVI melanoma): > 100 µM
- TGI (M14 melanoma): > 100 µM
- TGI (MALME-3M melanoma): > 100 µM
- TGI (MDA-MB-231 breast): > 100 µM
- TGI (MDA-MB-435): > 100 µM
- TGI (MDA-N): > 100 µM
- TGI (MOLT-4 leukemia): > 100 µM
- TGI (NCI-H226 lung): > 100 µM
- TGI (NCI-H23 lung): > 100 µM
- TGI (NCI-H522 lung): > 100 µM
- TGI (NCI/ADR-RES ovarian): > 100 µM
- TGI (OVCAR-3 ovarian): > 100 µM
- TGI (OVCAR-4 ovarian): > 100 µM
- TGI (OVCAR-5 ovarian): > 100 µM
- TGI (OVCAR-8 ovarian): > 100 µM
- TGI (PC-3 prostate): > 100 µM
- TGI (RPMI-8226 leukemia): > 100 µM
- TGI (RXF 393 renal): > 100 µM
- TGI (SF-268 CNS): > 100 µM
- TGI (SF-295 CNS): > 100 µM
- TGI (SK-MEL-2 melanoma): > 100 µM
- TGI (SK-MEL-28 melanoma): > 100 µM
- TGI (SK-MEL-5 melanoma): > 100 µM
- TGI (SK-OV-3 ovarian): > 100 µM
- TGI (SN12C renal): > 100 µM
- TGI (SNB-19 CNS): > 100 µM
- TGI (SNB-75 CNS): > 100 µM
- TGI (SR leukemia): > 100 µM
- TGI (SW-620 colon): > 100 µM
- TGI (T-47D breast): > 100 µM
- TGI (TK-10 renal): > 100 µM
- TGI (U251 CNS): > 100 µM
- TGI (UACC-257 melanoma): > 100 µM
- TGI (UACC-62 melanoma): > 100 µM
- TGI (UO-31 renal): > 100 µM

SMILES: O=c1cc(NNc2ccc(F)cc2)[nH]c(=O)[nH]1
- TGI (786-0 renal): 25.5 µM
- TGI (A498 renal): > 100 µM
- TGI (A549 NSCLC): 34.7 µM
- TGI (ACHN renal): 31.7 µM
- TGI (BT-549 breast): 26.7 µM
- TGI (CCRF-CEM leukemia): 74.7 µM
- TGI (COLO 205 colon): 30.9 µM
- TGI (DU-145 prostate): > 100 µM
- TGI (EKVX NSCLC): 32.2 µM
- TGI (HCC-2998 colon): 51.3 µM
- TGI (HCT-116 colon): 34.1 µM
- TGI (HCT-15 colon): 31.7 µM
- TGI (HL-60(TB) leukemia): > 100 µM
- TGI (HOP-62 NSCLC): 32.7 µM
- TGI (HS 578T breast): 90.8 µM
- TGI (HT29 colon): 33.9 µM
- TGI (IGROV1 ovarian): 30.2 µM
- TGI (K-562 leukemia): 81.2 µM
- TGI (KM12 colon): 24 µM
- TGI (LOX IMVI melanoma): > 100 µM
- TGI (M14 melanoma): 21 µM
- TGI (MALME-3M melanoma): 43.8 µM
- TGI (MDA-MB-231 breast): 33.4 µM
- TGI (MDA-N): 30.8 µM
- TGI (MOLT-4 leukemia): 59.3 µM
- TGI (NCI-H226 lung): 57.4 µM
- TGI (NCI-H23 lung): 82.7 µM
- TGI (NCI-H460 lung): 38.7 µM
- TGI (NCI/ADR-RES ovarian): 88.7 µM
- TGI (OVCAR-3 ovarian): 32.7 µM
- TGI (OVCAR-4 ovarian): 21.4 µM
- TGI (OVCAR-5 ovarian): 33.3 µM
- TGI (OVCAR-8 ovarian): 53.3 µM
- TGI (PC-3 prostate): 32.5 µM
- TGI (RPMI-8226 leukemia): > 100 µM
- TGI (RXF 393 renal): 34.3 µM
- TGI (SF-268 CNS): 53.8 µM
- TGI (SF-295 CNS): > 100 µM
- TGI (SF-539 CNS): 44.5 µM
- TGI (SK-MEL-2 melanoma): 45.6 µM
- TGI (SK-MEL-28 melanoma): 33.3 µM
- TGI (SK-MEL-5 melanoma): 67.1 µM
- TGI (SK-OV-3 ovarian): > 100 µM
- TGI (SN12C renal): 37.7 µM
- TGI (SNB-19 CNS): 37.1 µM
- TGI (SNB-75 CNS): 31.1 µM
- TGI (SR leukemia): > 100 µM
- TGI (SW-620 colon): 33.1 µM
- TGI (T-47D breast): 71 µM
- TGI (TK-10 renal): 36.8 µM
- TGI (U251 CNS): 40.8 µM
- TGI (UACC-257 melanoma): > 100 µM
- TGI (UACC-62 melanoma): 33.5 µM
- TGI (UO-31 renal): 31.8 µM
